Read-outs that look alike come from different tables or passages of the source.
Key:
[1] = test system: MT-2 cells; conditions: 48 hours
Excerpt: The chemical structures of the compounds are illustrated in FIGS. 1-4. In FIG. 1a, the D- and meso-isomers of L-chicoric acid are identical in this illustrative format. […] The first compound in Table 1, L-chicoric acid, a previously described DCTA, is included for reference. LD5, the 5% lethal dose, is a measure of the toxicity of compound to living, cultured cells. It is the concentration at which cell growth is inhibited by 5%. […] Most simply understood, disintegration is a term used to refer to the reverse of integration.
Cell toxicity and anti-HIV assays were performed as reported above. […] Cells were incubated with drug for 48 hours at 37° C., then harvested for cell viability in a neutral red dye assay as described.

[2] = test system: HIVLAI; assay: Anti-HIV assay, protection from HIV-induced cell death; format: cell-based; conditions: read-out: ED50 (concentration that inhibits HIV-induced cell death by 50%)
Description: Anti-HIV assays were performed as described above. […] The compounds were then two-fold serially diluted in triplicate. To each 50 μl of diluted compound, 50 μl of HIVLAI was added and the virus-drug mixture was incubated for 1 hr at 37° C. […] Final multiplicity of infection (MOI) was 1-5. Cells were harvested to quantitate cytopathic effect using a neutral red dye assay as described.

[3] = target: HIV-1 IN (Human immunodeficiency virus type 1 group M subtype B, UniProt P12497); assay: biochemical
[4] = test system: HIVNL4-3 clone 7-1; format: cell-based, HIV-1; conditions: for concentration of the drug in the combination with L-CCA giving Fa: NL4-3clone7-1, combined with L-CCA
[5] = test system: HIVNL4-3 JF26/A7; conditions: for concentration of the drug in the combination with L-CCA giving Fa: NL4-3cloneJF26/A7, combined with L-CCA
Description: (§1) For each of these HIV clones, the ED50 was determined for the anti-HIV compounds ZDV, DDC, DDI, the protease inhibitor (PI) Nelfinavir (provided by Agouron Pharmaceuticals, San Diego), and L-CCA.
(§2) Molecular clones of HIV included wild-type HIVNL4-3, HIVNL4-3 M184V, and HIVNL4-3 JF26/A7, All three clones were a generous gift from P. Krogstad (UCLA, Los Angeles, Calif.). Viruses were initially, transfected in adherent HeLa cells using Lipofectin®. After 48 hours, H9 cells were added. Following 24 hours of co-culture, non-adherent cells were removed and cultured. Cells were monitored by indirect immunofluorescence and RT release as described below until the culture was 100% infected by HIV-1. Supernatant fluids were collected and clarified of cells by low-speed centrifugation followed by filtration through 0.45 μm filters.
(§3) Anti-HIV activity of compounds was determined both alone and in combination using a cytopathicity based assay as described above. […] The fifty-percent effective dose (ED50) was calculated for triplicate infections. Mean ED50 (shown in FIG. 5) were calculated for each drug against each HIV variant from a minimum of three experiments performed in triplicate.
(§4) Experiments were designed at a fixed ratio of drugs; the ratio for each drug combination was determined based on the ED50 of each drug alone against each HIV variant. Combination indices were calculated on representative experiments performed in triplicate according to the following formula of Chou and Talalay: fa/fu=(D/Dm)^m
(§5) Where fa is the fraction affected by the dose, fu is the unaffected fraction, D is the dose of the drug, Dm is the median-effect dose determined to be the x-intercept of the median-effect plot, and m is the sigmoidicity of the dose-effect curve, determined by the slope of the median-effect plot. The median effect plot is based on the following equation: log(fa/fu)=^m log (D)−m log (Dm)

[6] = test system: HIVNL4-3 M184V; format: cell-based, HIV-1; conditions: for concentration of the drug in the combination with L-CCA giving Fa: NL4-3cloneM184V, combined with L-CCA; for susceptibility of the clone to the drug alone: clone with methionine to valine mutation in RT
Description: as §1, §2, §3, §4, §5

[7] = test system: HIV-1NL4-3; assay: Anti-HIV cytopathicity assay against parental molecular clone; format: cell-based; conditions: mean of triplicate infections; read-out: ED50 HIVNL4-3
Description: (§6) Cloning and sequencing of virus from the HIVNL4-3 passaged in the presence of 8 μM L-chicoric acid was undertaken to determine the molecular basis for resistance to L-chicoric acid and to isolate a resistant HIV clone.
Assays, as described above, to determine the ED50 for a given compound against the molecular clone HIVNL4-3clone1-D4 and the parental clone HIVNL4-3 give an indication of the selectivity of the compound for inhibition of HIV replication through IN. Resistance to a compound, as measured by an increased ED50, by clone HIVNL4-3clone1-D4, implies selectivity of the compound for IN. Thus clone HIVNL4-3clone1-D4 can be used to screen candidate IN inhibitors for selectivity.

[8] = test system: HIV-1NL4-3clone1-D4; format: cell-based; conditions: for Fold Change (ED50 resistant clone vs HIVNL4-3): HIVNL4-3clone1-D4 vs HIVNL4-3; for efficacy against the L-chicoric acid resistant clone: compared with parental HIVNL4-3; for EC50: mean of triplicate infections, read-out: ED50 HIVNL4-3clone1-D4
Description: as §6
This cloning was accomplished through site-directed mutagenesis introducing several silent mutations immediately upstream and downstream of the integrase gene. These mutations generated two unique restriction sites: an upstream SacII and a downstream XbaI (FIG. 15). Introduction of these mutations allowed the entire integrase gene with only minimal upstream and downstream nucleotides to be digested and “swapped” between drug-resistant and drug-sensitive clones.

[9] = Human immunodeficiency virus 1, MT2, 72 h

O=C(/C=C/c1ccc(O)c(O)c1)OC[C@H](OC(=O)/C=C/c1ccc(O)c(O)c1)C(=O)O [Compound 19, Dicaffeoyl-L-glyceric acid]
LD5 (5% lethal dose, concentration at which cell growth is inhibited by 5%) [1]: 145 µM
EC50 [2, 9]: 2300 nM
IC50 [3]: 520 nM

Nc1ccn([C@H]2CC[C@@H](CO)O2)c(=O)n1 [DDC, 2′,3′-dideoxycytidine]
concentration of the drug in the combination with L-CCA giving Fa ([4]; Fa 0.2): 12.4 nM
concentration of the drug in the combination with L-CCA giving Fa ([4]; Fa 0.4): 21.1 nM
concentration of the drug in the combination with L-CCA giving Fa ([4]; Fa 0.6): 32.8 nM
concentration of the drug in the combination with L-CCA giving Fa ([4]; Fa 0.8): 56.0 nM
concentration of the drug in the combination with L-CCA giving Fa ([4]; Fa 0.9): 87.1 nM
susceptibility of the clone to the drug alone ([4]; HIVNL4-3 clone 7-1): increased susceptibility
concentration of the drug in the combination with L-CCA giving Fa ([5]; Fa 0.2): 13.0 nM
concentration of the drug in the combination with L-CCA giving Fa ([5]; Fa 0.4): 23.8 nM
concentration of the drug in the combination with L-CCA giving Fa ([5]; Fa 0.6): 39.2 nM
concentration of the drug in the combination with L-CCA giving Fa ([5]; Fa 0.8): 71.8 nM
concentration of the drug in the combination with L-CCA giving Fa ([5]; Fa 0.9): 118 nM
concentration of the drug in the combination with L-CCA giving Fa ([6]; Fa 0.2): 21.6 nM
concentration of the drug in the combination with L-CCA giving Fa ([6]; Fa 0.4): 43.2 nM
concentration of the drug in the combination with L-CCA giving Fa ([6]; Fa 0.6): 76.8 nM
concentration of the drug in the combination with L-CCA giving Fa ([6]; Fa 0.8): 153.7 nM
concentration of the drug in the combination with L-CCA giving Fa ([6]; Fa 0.9): 273 nM
susceptibility of the clone to the drug alone [6]: partial resistance

O=C(O[C@@H](C(=O)O)[C@@H](OC(=O)c1ccc(O)c(O)c1)C(=O)O)c1ccc(O)c(O)c1 [Compound 26]
LD5 (5% lethal dose, concentration at which cell growth is inhibited by 5%) [1]: 90 µM
EC50 ([2]; HIVLAI, MT-2 cells, 72 hr): 950 nM
EC50 [7]: 820 nM
Fold Change (ED50 resistant clone vs HIVNL4-3) [8]: 64
efficacy against the L-chicoric acid resistant clone [8]: reduced efficacy
EC50 [8]: 52500 nM

O=C(O)C(=Cc1ccc(O)c(O)c1)C(=Cc1ccc(O)c(O)c1)C(=O)O [Compound 37, Di-3,4-dihydroxybenzylidene succinic acid]
LD5 (5% lethal dose, concentration at which cell growth is inhibited by 5%) [1]: 35 µM
EC50 [2, 9]: 8700 nM
IC50 [3]: 2190 nM

OC[C@@H]1CC[C@H](n2cnc3c(O)ncnc32)O1 [DDI, 2′,3′-dideoxyinosine]
susceptibility of the clone to the drug alone [6]: partial resistance

O=C(C=Cc1ccc(O)c(O)c1)NCCCCC(NC(=O)C=Cc1ccc(O)c(O)c1)C(=O)O [Compound 41, 1,4-dicaffeoyl-L-lysine]
LD5 (5% lethal dose, concentration at which cell growth is inhibited by 5%) [1]: 29.2 µM
EC50 [2, 9]: 3700 nM
IC50 [3]: 2230 nM

O=C(C=Cc1ccc(O)c(O)c1)Nc1ccc(C(=O)O)cc1NC(=O)C=Cc1ccc(O)c(O)c1 [Compound 36, Bis-3,4-dicaffeoyldiamidobenzoic acid]
LD5 (5% lethal dose, concentration at which cell growth is inhibited by 5%) [1]: 47 µM
EC50 [2, 9]: 4600 nM
IC50 [3]: 734 nM

Cc1c(O)cccc1C(=O)N[C@@H](CSc1ccccc1)[C@H](O)CN1C[C@H]2CCCC[C@H]2C[C@H]1C(=O)NC(C)(C)C [Nelfinavir]
concentration of the drug in the combination with L-CCA giving Fa ([4]; Fa 0.2): 2.9 nM
concentration of the drug in the combination with L-CCA giving Fa ([4]; Fa 0.4): 4.9 nM
concentration of the drug in the combination with L-CCA giving Fa ([4]; Fa 0.6): 7.6 nM
concentration of the drug in the combination with L-CCA giving Fa ([4]; Fa 0.8): 13.1 nM
concentration of the drug in the combination with L-CCA giving Fa ([4]; Fa 0.9): 20.3 nM
concentration of the drug in the combination with L-CCA giving Fa ([5]; Fa 0.2): 4.6 nM
concentration of the drug in the combination with L-CCA giving Fa ([5]; Fa 0.4): 7.0 nM
concentration of the drug in the combination with L-CCA giving Fa ([5]; Fa 0.6): 10.0 nM
concentration of the drug in the combination with L-CCA giving Fa ([5]; Fa 0.8): 15.1 nM
concentration of the drug in the combination with L-CCA giving Fa ([5]; Fa 0.9): 21.3 nM
concentration of the drug in the combination with L-CCA giving Fa ([6]; Fa 0.2): 2.5 nM
concentration of the drug in the combination with L-CCA giving Fa ([6]; Fa 0.4): 4.7 nM
concentration of the drug in the combination with L-CCA giving Fa ([6]; Fa 0.6): 7.9 nM
concentration of the drug in the combination with L-CCA giving Fa ([6]; Fa 0.8): 14.8 nM
concentration of the drug in the combination with L-CCA giving Fa ([6]; Fa 0.9): 24.8 nM

O=C(C=Cc1ccc(O)c(O)c1)NCC(NC(=O)C=Cc1ccc(O)c(O)c1)C(=O)O (centres unmarked) [Compound 35, 2-3-dicaffeoyldiamidopropionic acid]
LD5 (5% lethal dose, concentration at which cell growth is inhibited by 5%) [1]: 50 µM
EC50 [2, 9]: 70000 nM
IC50 [3]: 570 nM

O=C(O[C@@H](C(=O)O)[C@@H](OC(=O)c1cc(O)c(O)c(O)c1)C(=O)O)c1cc(O)c(O)c(O)c1 [Compound 25]
LD5 (5% lethal dose, concentration at which cell growth is inhibited by 5%) [1]: 2.7 µM
EC50 ([2]; HIVLAI, MT-2 cells, 72 hr): 660 nM
EC50 [7]: 290 nM
Fold Change (ED50 resistant clone vs HIVNL4-3) [8]: 107
efficacy against the L-chicoric acid resistant clone [8]: reduced efficacy
EC50 [8]: 31200 nM

O=C(C=Cc1ccc(O)c(O)c1)NCC(OC(=O)C=Cc1ccc(O)c(O)c1)C(=O)O [Compound 40, Bis-dicaffeoyl-L-isoserine]
LD5 (5% lethal dose, concentration at which cell growth is inhibited by 5%) [1]: 175 µM
EC50 [2, 9]: 3000 nM
IC50 [3]: 195 nM

O=C(Cc1ccc(O)c(O)c1)O[C@@H](C(=O)O)[C@@H](OC(=O)Cc1ccc(O)c(O)c1)C(=O)O [Compound 28]
LD5 (5% lethal dose, concentration at which cell growth is inhibited by 5%) [1]: 70 µM
EC50 ([2]; HIVLAI, MT-2 cells, 72 hr): 35000 nM
EC50 [7]: 15600 nM
Fold Change (ED50 resistant clone vs HIVNL4-3) [8]: 4
efficacy against the L-chicoric acid resistant clone [8]: reduced efficacy
EC50 [8]: 62500 nM

Cc1cn([C@H]2C[C@H](N=[N+]=[N-])[C@@H](CO)O2)c(=O)[nH]c1=O [Zidovudine, zidovudine]
concentration of the drug in the combination with L-CCA giving Fa ([4]; Fa 0.2): 2.7 nM
concentration of the drug in the combination with L-CCA giving Fa ([4]; Fa 0.4): 8.7 nM
concentration of the drug in the combination with L-CCA giving Fa ([4]; Fa 0.6): 22.9 nM
concentration of the drug in the combination with L-CCA giving Fa ([4]; Fa 0.8): 73.8 nM
concentration of the drug in the combination with L-CCA giving Fa ([4]; Fa 0.9): 194 nM
concentration of the drug in the combination with L-CCA giving Fa ([5]; Fa 0.2): 150.2 nM
concentration of the drug in the combination with L-CCA giving Fa ([5]; Fa 0.4): 259.8 nM
concentration of the drug in the combination with L-CCA giving Fa ([5]; Fa 0.6): 409 nM
concentration of the drug in the combination with L-CCA giving Fa ([5]; Fa 0.8): 707 nM
concentration of the drug in the combination with L-CCA giving Fa ([5]; Fa 0.9): 1112 nM
susceptibility of the clone to the drug alone ([5]; HIVNL4-3 JF26/A7): highly resistant
concentration of the drug in the combination with L-CCA giving Fa ([6]; Fa 0.2): 4.9 nM
concentration of the drug in the combination with L-CCA giving Fa ([6]; Fa 0.4): 10.2 nM
concentration of the drug in the combination with L-CCA giving Fa ([6]; Fa 0.6): 18.9 nM
concentration of the drug in the combination with L-CCA giving Fa ([6]; Fa 0.8): 39.6 nM
concentration of the drug in the combination with L-CCA giving Fa ([6]; Fa 0.9): 73 nM
sensitivity of the clones to the drug compared with parental HIVNL4-3 ([8]; clones 7-1, 7-3 and 1-D4, FIG. 16a): same sensitivity
